Patent US11731977B2, “SGC stimulators” (Cyclerion Therapeutics, Inc., priority 2016, dated 2023)

tested on: cGMP in rat primary neurons; test: cGMP neuronal cell-based assay (Example 3); conditions: Primary neuron; rat primary hippocampal neurons; 30 μM DETA-NO; cGMP by LC-MS/MS; 50% of high control (10 μM Compound Y); read-out: Abs EC50
Procedure: Rat primary neurons were isolated from fetuses of 18-day pregnant Sprague-Dawley females. The fetuses were collected in Hanks' balanced salt solution (HBSS) and brains were rapidly removed. The cerebral hippocampi were isolated and mechanically fragmented. Further tissue digestion was performed with 0.25% (wt/vol) trypsin solution in HBSS without Ca2+ and Mg2+ for 15 min at 37° C. After trypsination, cells were washed and resuspended in neurobasal medium supplemented with 0.5 mM L-glutamine, 12.5 uM glutamic acid, 2% B-27 and 100 U/mL penicillin, and 100 μg/mL streptomycin. Cells were plated at a density of 4×10^4 cells/well in a poly-D-lysine coated 384-well flat clear-bottom plate (Corning Cat No 354662). Cells were incubated 6-7 days at 37° C. in a humidified chamber with 5% CO2. Media was removed and cells were washed 1× with HBSS containing Ca2+ and Mg2+, and replaced with 40 uL HBSS containing 0.5 mM IBMX, and incubated for 15 minutes at 37° C. 10 uL of a 5× stock of test compounds with diethylenetriamine NONOate (DETA-NO) was added. Final concentration of DETA-NO was 30 μM. Cells were incubated for 20 min at 37° C. Medium was removed, 50 uL of ice-cold 10% acetic acid was added, and incubated for 60 minutes at 4° C. Following centrifugation at 4° C. for 5 minutes at 1000×g to pellet cell debris, the supernatant was aspirated to a clean plate and the samples were analyzed for cGMP content. cGMP concentrations were determined from each sample using LC-MS/MS.
Data were normalized to a high control using the following equation: 100*(Sample−Low Control)/(High Control−Low Control), where the low control is the average of 15 samples treated with 1% DMSO, and the high control is the average of 15 samples treated with 10 μM a known sGC stimulator Compound Y. Data were fit using a 4-parameter fit (log(agonist) vs. response—variable slope) using GraphPad Prism Software v.5. n=2 for all compounds. The Absolute EC50 was interpolated from the curve fit and is defined as the concentration at which a given compound elicits 50% of the high control response. Compounds failing to elicit a minimum response of 50% are reported as >30 μM. For compounds run in duplicate or n higher than 2, the result herein given is the geometric mean of the several results obtained.

EC50, ≤ 100 nM:
Fc1ccccc1Cc1nc(-c2nc(C(F)(F)F)n[nH]2)cn2ccnc12 [Compound I-1, 8-(2-fluorobenzyl)-6-(3-(trifluoromethyl)-1H-1,2,4-triazol-5-yl)imidazo[1,2-a]pyrazine]
Fc1cccc(Cc2nc(-c3nc(C(F)(F)F)n[nH]3)cn3ccnc23)c1 [Compound I-2, 8-(3-Fluorobenzyl)-6-(3-(trifluoromethyl)-1H-1,2,4-triazol-5-yl)imidazo[1,2-a]pyrazine]
Fc1cccc(Cc2nc(-c3nc(C(F)F)n[nH]3)cn3ccnc23)c1 [Compound I-3, 6-(3-(Difluoromethyl)-1H-1,2,4-triazol-5-yl)-8-(3-fluorobenzyl)imidazo[1,2-a]pyrazine]
Fc1cccc(Cc2nc(-c3nc(C(F)(F)F)n[nH]3)cn3ccnc23)c1F [Compound I-10, 8-(2,3-Difluorobenzyl)-6-(3-(trifluoromethyl)-1H-1,2,4-triazol-5-yl)imidazo[1,2-a]pyrazine]
Fc1cccc(Cc2nc(-c3nc(C(F)F)n[nH]3)cn3ccnc23)c1F [Compound I-11, 8-(2,3-Difluorobenzyl)-6-(3-(difluoromethyl)-1H-1,2,4-triazol-5-yl)imidazo[1,2-a]pyrazine]
Fc1ccccc1Cc1nc(-c2nc(C(F)F)n[nH]2)cn2ccnc12 [Compound I-14, 8-(2-Fluorobenzyl)-6-(3-(difluoromethyl)-1H-1,2,4-triazol-5-yl)imidazo[1,2-a]pyrazine]
Fc1ccccc1Cc1nc(-c2nc(C(F)(F)F)n[nH]2)cn2ncnc12 [Compound I-16, 8-(2-Fluorobenzyl)-6-(3-(trifluoromethyl)-1H-1,2,4-triazol-5-yl)-[1,2,4]triazolo[1,5-a]pyrazine]
